Measurements reported in patent US7138361B2, “Herbicidal heterocycles” (E. I. du Pont de Nemours and Company, priority 2000, dated 2006).

Key:
Type in all cases: in vivo
rice (Oryza saliva) = assay: Test C flooded paddy test; details: for Rice plant response rating: Flooded Paddy, scale 0 to 100, 0 no effect, 100 complete control; for Plant response rating, Rice: flooded paddy test, scale 0 to 100 (0 no effect, 100 complete control)
How it was run: (§1)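 Flooded paddy, 2-leaf stage at treatment. Readout: visual % control vs untreated, 0–100, at 12–14 d in greenhouse.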

[1] = system: barnyardgrass (Echinochloa crus-galli); assay: Test C flooded paddy test; details: for Barnyardgrass plant response rating: Flooded Paddy, scale 0 to 100, 0 no effect, 100 complete control; for Plant response rating, Barnyardgrass: flooded paddy test, scale 0 to 100 (0 no effect, 100 complete control)
How it was run: as §1

[2] = system: Surinam grass (Brachiaria decumbens); assay: Test C preemergence
Source text: (§2) Seeds of plant species selected from bermudagrass (Cynodon dactylon), Surinam grass (Brachiaria decumbens), cocklebur (Xanthium strumarium), corn (Zea mays), crabgrass (Digitaria sanguinalis), woolly cupgrass (Eriochloa villosa), giant foxtail (Setaria faberii), goosegrass (Eleusine indica), johnsongrass (Sorghum halepense), kochia (Kochia scoparia), lambsquarters (Chenopodium album), morningglory (Ipomoea hederacea), yellow nutsedge (Cyperus esculentus), pigweed (Amaranthus retroflexus), common ragweed (Ambrosia elatior), soybean (Glycine max) and velvetleaf (Abutilon theophrasti) were planted and treated preemergence with test chemicals formulated in a non-phytotoxic solvent mixture which included a surfactant.
(§3) At the same time, plants selected from these crop and weed species and also winter barley (Hordeum vulgare), blackgrass (Alopecurus myosuroides), canary grass (Phalaris minor), chickweed (Stellaria media), downy brome (Bromus tectorum), green foxtail (Setaria viridis), Italian ryegrass (Lolium multiflorum), wheat (Triticum aestivum), wild oat (Avena fatua) and windgrass (Apera spica-venti) were treated with postemergence applications of some of the test chemicals formulated in the same manner. Plants ranged in height from 2 to 18 cm (1- to 4-leaf stage) for postemergence treatments. Plant species in the flooded paddy test consisted of rice (Oryza saliva), smallflower flatsedge (Cyperus difformis), duck salad (Heteranthera limosa) and barnyardgrass (Echinochloa crus-galli) grown to the 2-leaf stage for testing. Treated plants and controls were maintained in a greenhouse for 12 to 14 days, after which time all species were compared to controls and visually evaluated. Plant response ratings, summarized in Table C, are based on a scale of 0 to 100 where 0 is no effect and 100 is complete control. A dash (-) response means no test result.

corn (Zea mays) = assay: Test C preemergence
Source text: as §2, §3

Sunflower [3] = assay: Test C preemergence; details: Rate 62 g/ha; scale 0 to 100, 0 no effect, 100 complete control
Source text: as §2, §3

[4] = system: lambsquarters (Chenopodium album); assay: Test C preemergence
Source text: as §2, §3

[5] = system: crabgrass (Digitaria sanguinalis); assay: Test C preemergence
Source text: as §2, §3

[6] = system: yellow nutsedge (Cyperus esculentus); assay: Test C preemergence
Source text: as §2, §3

[7] = system: morningglory (Ipomoea hederacea); assay: Test C preemergence
Source text: as §2, §3

Nightshade = assay: Test C preemergence
Source text: as §2, §3

[8] = system: woolly cupgrass (Eriochloa villosa); assay: Test C preemergence
Source text: as §2, §3

[9] = system: johnsongrass (Sorghum halepense); assay: Test C preemergence
Source text: as §2, §3

[10] = system: velvetleaf (Abutilon theophrasti); assay: Test C preemergence
Source text: as §2, §3

soybean (Glycine max) = assay: Test C preemergence
Source text: as §2, §3

[11] = system: giant foxtail (Setaria faberii); assay: Test C preemergence
Source text: as §2, §3

[12] = system: pigweed (Amaranthus retroflexus); assay: Test C preemergence
Source text: as §2, §3

[13] = system: bermudagrass (Cynodon dactylon); assay: Test C preemergence
Source text: as §2, §3

[14] = system: cocklebur (Xanthium strumarium); assay: Test C preemergence; details: preemergence
Source text: as §2, §3

[15] = system: goosegrass (Eleusine indica); assay: Test C preemergence
Source text: as §2, §3

kochia (Kochia scoparia) = assay: Test C preemergence
Source text: as §2, §3

Sunflower [16] = assay: Test C preemergence; details: Rate 250 g/ha, visual evaluation after 12 to 14 days
[17] = Rate 62 g/ha, scale 0 to 100, 0 no effect, 100 complete control
[18] = preemergence, Rate 31 g/ha, scale 0 to 100
[19] = preemergence, Rate 250 g/ha, visual evaluation after 12 to 14 days
[20] = preemergence, Rate 125 g/ha, scale 0 to 100, 0 no effect, 100 complete control
[21] = Rate 125 g/ha, scale 0 to 100, 0 no effect, 100 complete control

O=C1C(n2ccc(C3CC3)n2)OCN1c1cccc(C(F)(F)F)c1 (stereo not shown) [Compound 28]
30: Plant response rating (0 to 100), Corn (corn (Zea mays); [19]) | Plant response rating, Corn (corn (Zea mays); [20]) | Plant response rating, Cupgrass, Woolly [8, 18]
50: Plant response rating, Nutsedge [6, 17] | Plant response rating, Nutsedge [6, 18] | Plant response rating (0 to 100), Nutsedge [6, 19] | Plant response rating, Nutsedge [6, 20] | Plant response rating, Cupgrass, Woolly [8, 17] | Plant response rating, Johnsongrass [9, 17] | Plant response rating (0 to 100), Pigweed [12, 19] | Plant response rating, Bermudagrass [13, 17]
80: Plant response rating, Goosegrass [15, 17]
60: Plant response rating (0 to 100), Surinam grass [2, 19] | Plant response rating, Surinam grass [2, 20]
90: Plant response rating, Crabgrass [5, 17] | Plant response rating, Crabgrass [5, 18]
0: Plant response rating, Rice (rice (Oryza saliva); Rate 62 g/ha) | Plant response rating, Barnyardgrass ([1]; Rate 62 g/ha) | Plant response rating, Barnyardgrass ([1]; Rate 125 g/ha) | Plant response rating, Corn (corn (Zea mays); [17]) | Plant response rating, Corn (corn (Zea mays); [18]) | Plant response rating, Morningglory [7, 17] | Plant response rating, Morningglory [7, 18] | Plant response rating (0 to 100), Morningglory [7, 19] | Plant response rating, Morningglory [7, 20] | Plant response rating, Nightshade (Nightshade; Rate 31 g/ha, scale 0 to 100) | Plant response rating, Nightshade (Nightshade; [17]) | Plant response rating, Johnsongrass [9, 18] | Plant response rating, Velvetleaf [10, 17] | Plant response rating, Velvetleaf [10, 18] | Plant response rating (0 to 100), Velvetleaf [10, 19] | Plant response rating, Velvetleaf [10, 20] | Plant response rating, Soybean (soybean (Glycine max); [17]) | Plant response rating, Soybean (soybean (Glycine max); [18]) | Plant response rating, Foxtail, Giant [11, 17] | Plant response rating, Foxtail, Giant [11, 18] | Plant response rating (0 to 100), Foxtail, Giant [11, 19] | Plant response rating, Cocklebur ([14]; Rate 31 g/ha, scale 0 to 100) | Plant response rating (0 to 100), Cocklebur ([14]; Rate 250 g/ha, visual evaluation after 12 to 14 days) | Plant response rating, Cocklebur [14, 21] | Plant response rating, Kochia (kochia (Kochia scoparia); [18])
20: Rice plant response rating (rice (Oryza saliva); Rate 250 g/ha) | Rice plant response rating (rice (Oryza saliva); Rate 500 g/ha) | Plant response rating, Rice (rice (Oryza saliva); Rate 125 g/ha) | Plant response rating, Surinam grass [2, 17] | Plant response rating, Surinam grass [2, 18] | Plant response rating, Sunflower (Sunflower [3]) | Plant response rating, Bermudagrass [13, 18]
100: Plant response rating, Lambsquarters [4, 17] | Plant response rating, Lambsquarters [4, 18] | Plant response rating (0 to 100), Lambsquarters [4, 19] | Plant response rating, Lambsquarters [4, 20] | Plant response rating (0 to 100), Crabgrass [5, 19] | Plant response rating, Crabgrass [5, 20] | Plant response rating (0 to 100), Cupgrass, Woolly [8, 19] | Plant response rating, Foxtail, Giant [11, 20] | Plant response rating, Pigweed [12, 20] | Plant response rating (0 to 100 where 0 is no effect and 100 is complete control), Bermudagrass [13, 19] | Plant response rating, Bermudagrass [13, 20] | Plant response rating (0 to 100), Goosegrass [15, 19] | Plant response rating, Goosegrass [15, 20] | Plant response rating (0 to 100), Kochia (kochia (Kochia scoparia); [19]) | Plant response rating, Kochia (kochia (Kochia scoparia); [20])
40: Barnyardgrass plant response rating ([1]; Rate 250 g/ha) | Plant response rating (0 to 100), Soybean (soybean (Glycine max); [19]) | Plant response rating, Soybean (soybean (Glycine max); [20]) | Plant response rating, Goosegrass [15, 18] | Plant response rating, Kochia (kochia (Kochia scoparia); [17]) | Plant response rating (0 to 100), Sunflower (Sunflower [16])
70: Barnyardgrass plant response rating ([1]; Rate 500 g/ha) | Plant response rating, Nightshade (Nightshade; [21]) | Plant response rating, Cupgrass, Woolly [8, 20] | Plant response rating (0 to 100), Johnsongrass [9, 19] | Plant response rating, Johnsongrass [9, 20] | Plant response rating, Pigweed [12, 17] | Plant response rating, Pigweed [12, 18]
